Literature values, collected in patent US11167084B2, “Control device for controlling the administration of propofol to a patient” (Fresenius Vial SAS, priority 2016, dated 2021).
Values after ≈ are worked out from the molar mass of the structure shown.

Settings: Hill equation relating effect-site concentration to BIS; Emax=E0=100, y=2; FIG. 1 from T. A. Lim, Br J Anaesth 2006

## CC(C)c1cccc(C(C)C)c1O [propofol]
  EC50 (propofol effective concentration 50, effect-site): 4.14 µg/mL (≈ 23.2 µM)
